Patent US20140287120A1, “ORGANIC COMPOUNDS” (Givaudan S.A, priority 2011, published 2014)

Test: Taste panel: intensity of umami and salt taste of solution B compared with reference solution A
Settings: 10 ppm in a solution of 0.5% NaCl and 0.03% MSG, compared with solution A without compound; average rating of 4 flavourists; scale -3 (much lower than base) to 3 (much higher than base), 0 = same as base, 1 = slightly higher than base
Protocol: Two solutions were prepared:
A a solution of 0.5% NaCl and 0.03% MSG
B a solution of 0.5% NaCl and 0.03% MSG and 10 ppm Example 1 compound
The samples were tasted by a small group of flavourists (2 male, 2 female, aged between 30 and 60). The intensity of the umami and salt taste of solution B was compared with that of the reference (solution A) and rated according to the following intensity scale:
Taste effect much lower than base: −3
Taste effect lower than base: −2
Taste effect slightly lower than base: −1
Taste effect same as base: 0
Taste effect slightly higher than base: 1
Taste effect higher than base: 2
Taste effect much higher than base: 3
The results (average of rating given by the flavourists) were: […]

CC(N)(CCC(=O)O)C(=O)O (racemic) [DL-2-methylglutamic acid, DL-2-Methylglutamic Acid]
Intensity Taste Salt (NaCl): 1.00 | Intensity Taste Umami: 0.00
